From patent US6949250B2, “Selective algaecides for control of cyanochloronta” (The United States of America as represented by the …, priority 2002, dated 2005)
Converted amounts (≈) assume the structure as drawn. “Also recorded” adds a separate entry of the source. Like-named read-outs stand apart in the source and are kept apart here.

Key:
[1] = tested on: O. perornata; settings: cited from earlier work
[2] = tested on: MIB; assay: Pond efficacy testing of 9,10-anthraquinone using limnocorrals: MIB levels; type: in vivo; settings: dissolved in ethanol, unpublished observations
Text: (§1) Previous research (K. K. Schrader, M. Q. de Regt, P. D. Tidwell, C. S. Tucker and S. O. Duke, Selective growth inhibition of the musty-odor producing cyanobacterium Oscillatoria cf. chalybea by natural compounds. Bull. Environ. Contam. Toxicol. (1998a), vol. 60, pp. 651-658) has identified several natural compounds from plants that are selectively toxic towards O. perornata.

[3] = tested on: O. perornata; assay: Pond efficacy testing of 9,10-anthraquinone using limnocorrals: O. perornata numbers; type: in vivo, Oscillatoria perornata; settings: dissolved in ethanol, unpublished observations
Text: as §1

[4] = tested on: Selenastrum capricornutum; assay: Rapid bioassay screening for selective algicides (LOEC, LCIC); type: cell-based; settings: for MIC / minimal effective concentration: Selenastrum capricornutum; for MIC: read-out: LCIC (lowest-complete-inhibition concentration), Selenastrum capricornutum; for minimal effective concentration: read-out: LOEC (lowest-observed-effect concentration), Selenastrum capricornutum
Text: (§2) These were screened in the laboratory by the method of Schrader et al. (K. K. Schrader, M. Q. de Regt, C. S. Tucker and S. O. Duke, A rapid bioassay for selective algicides. Weed Technol. (1997), vol. 11, pp. 767-774) for algicidal activity.
(§3) The anthraquinone derivatives were screened for selective toxicity towards Oscillatoria perornata, previously isolated from a Mississippi catfish pond, using the method of Schrader et al. (1997). The green alga Selenastrum capricornutum (obtained from the United States Environmental Protection Agency, Corvallis, Oreg.) was used as the representative green algal species in the bioassay since it is a common species found in southeastern United States catfish ponds. Absorbance readings were graphed, and graphs were used to determine the LOEC (lowest-observed-effect concentration) and the LCIC (lowest-complete-inhibition concentration) for each anthraquinone analog. In addition, a 96-hour 50% inhibition concentration (IC50) was determined for DNA1-19-1 and DNA2-59-1 by using the method described by Schrader et al. (1998b). Stock solutions of DNA1-19-1 and DNA2-59-1 were prepared so that final concentrations screened for 96-hour IC50 determinations were as follows: 1) 0, 0.01, 0.033, 0.1, 0.333, 1.0, 3.3, and 10.0 μM DNA1-19-1 for both O. perornata and S. capricornutum; 2) 0, 0.003, 0.01, 0.033, 0.1, 0.333, 1.0, and 3.333 μM DNA2-59-1 for O. perornata; and 3) 0, 0.1, 0.333, 1.0, 3.333, 10.0, 33.333, and 100.0 μM DNA2-59-1 for S. capricornutum. Estimation of the IC50 was determined by plotting 96-hour absorbance readings against logarithmic dilution values of the anthraquinone analogs. The screening results of the anthraquinone derivatives and commercially available analogs of anthraquinone are presented in Tables 1 and 2, respectively. The results in Table 1 reveal that DNA1-19-1 and DNA2-59-1 are the most promising analogs since these two compounds had the lowest LOEC and LCIC values for O. perornata (10 nM and 100 nM, respectively). Based upon IC50 results in Table 3, DNA2-59-1 appears to be more toxic and selective towards O. perornata than DNA1-19-1.
as §3, with “(A rapid bioassay for selective algicides. Weed Technol. (1997), vol. 11, pp. 767-774).” for “(1997).”, “(K. K. Schradar, M. Q. de Regt, P. D. Tidwell, C. S. Tucker and S. O. Duke, Selective growth inhibition of the musty-odor producing cyanobacterium Oscillatoria cf. chalybea by natural compounds. Bull. Environ. Contam. Toxicol. (1998a), vol.60, pp. 651-658).” for “(1998b).”, “The screening results of the anthraquinone derivatives and commercially available analogs of anthraquinone are presented in Tables 1 and 2, respectively. The results in Table 1 reveal that DNA1-19-1 and DNA2-59-1 are the most promising analogs since these two compounds had the lowest LOEC and LCIC values for O. perornata (10 nM and 100 nM, respectively). Based upon IC50 results in Table 3, DNA2-59-1 appears to be more toxic and selective towards O. perornata than DNA1-19-1.” left out

[5] = tested on: Oscillatoria perornata; assay: as above; type: cell-based; settings: for MIC: read-out: LCIC (lowest-complete-inhibition concentration), Oscillatoria perornata; for minimal effective concentration: read-out: LOEC (lowest-observed-effect concentration), Oscillatoria perornata
Text: as §2, §3
as §3, with “(A rapid bioassay for selective algicides. Weed Technol. (1997), vol. 11, pp. 767-774).” for “(1997).”, “(K. K. Schradar, M. Q. de Regt, P. D. Tidwell, C. S. Tucker and S. O. Duke, Selective growth inhibition of the musty-odor producing cyanobacterium Oscillatoria cf. chalybea by natural compounds. Bull. Environ. Contam. Toxicol. (1998a), vol.60, pp. 651-658).” for “(1998b).”, “The screening results of the anthraquinone derivatives and commercially available analogs of anthraquinone are presented in Tables 1 and 2, respectively. The results in Table 1 reveal that DNA1-19-1 and DNA2-59-1 are the most promising analogs since these two compounds had the lowest LOEC and LCIC values for O. perornata (10 nM and 100 nM, respectively). Based upon IC50 results in Table 3, DNA2-59-1 appears to be more toxic and selective towards O. perornata than DNA1-19-1.” left out

[6] = Planktothrix perornata, rapid screening

Row | Compound | MIC ([4]; rapid screening) | MIC [5, 6] | LCIC (lowest-complete-inhibition concentration), Selenastrum capricornutum ([4]; rapid screening) | LOEC (lowest-observed-effect concentration), Selenastrum capricornutum ([4]; rapid screening) | LCIC (lowest-complete-inhibition concentration), Oscillatoria perornata ([5]; rapid screening) | also measured
1 | O=C1c2ccccc2C(=O)c2ccccc21 [9,10-anthraquinone] | – | – | – | – | – | effect on photosynthesis (result in words) ([1]; Schrader et al. 2000): inhibits photosynthesis; activity / toxicity towards O. perornata in the laboratory (result in words) ([1]; previous research (Schrader et al. 1998)): high degree of selective toxicity; also recorded: potent activity; reduction of MIB levels in pond (result in words) [2]: did not effectively reduce; reduction of numbers of O. perornata in pond (result in words) [3]: did not effectively reduce
2 | COCCOCCOCCOc1ccc2c(c1)C(=O)c1ccccc1C2=O [DNA3-9-1, 2-[2-[2-(2-methoxyethoxy)ethoxy]ethoxy]-9,10-anthraquinone] | > 100 µM | 10 µM (≈ 3.7 µg/mL) | – | – | – | minimal effective concentration ([4]; rapid screening): > 100 µM; minimal effective concentration [5, 6]: 10 µM
3 | CCNCc1ccc2c(c1)C(=O)c1ccccc1C2=O.O=P(O)(O)O [DNA3-17-1, 2-[Methylamino-N-(ethyl)]-9,10-anthraquinone monophosphate] | – | – | 10,000 nM | 10,000 nM | 1,000 nM | LOEC (lowest-observed-effect concentration), Oscillatoria perornata ([5]; rapid screening): 1,000 nM
4 | CCN(CC)Cc1cccc2c1C(=O)c1ccccc1C2=O [DNA4-39-1, 1-[Methylamino-N,N-(diethyl)]-9,10-anthraquinone monophosphate] | – | – | 10,000 nM | 10,000 nM | 1,000 nM | minimal effective concentration ([5]; rapid screening): 0.1 µM
5 | COCCOCCOc1ccc2c(c1)C(=O)c1ccccc1C2=O [DNA3-5-1, 2-[2-(2-Methoxyethoxy)ethoxy]-9,10-anthraquinone] | > 100 µM | 10 µM (≈ 3.26 µg/mL) | – | – | – | minimal effective concentration ([4]; rapid screening): > 100 µM; minimal effective concentration [5, 6]: 0.1 µM
6 | O=C1c2ccccc2C(=O)c2cc(COCCOCCOCCOCCO)ccc21 [DNA3-59-1, 2-Methylene-[2-[2-[2-(2-hydroxyethoxy)ethoxy]ethoxy]ethoxy]-9,10-anthraquinone] | – | – | >100,000 nM | >100,000 nM | 100,000 nM | minimal effective concentration ([5]; rapid screening): 0.1 µM
7 | CCN(CC)CCCNCc1ccc2c(c1)C(=O)c1ccccc1C2=O.O=P(O)(O)O.O=P(O)(O)O [DNA2-25-1, 2-[Methylamino-N-(propyl-3′-N,N-diethylaminopropyl)]-9,10-anthraquinone diphosphate] | – | – | 10,000 nM | 10,000 nM | – | MIC ([5]; rapid screening): 0.1 µM; minimal effective concentration ([5]; rapid screening): 0.1 µM
8 | CCN(CC)CCCNC(C)c1ccc2c(c1)C(=O)c1ccccc1C2=O (centres unmarked) [DNA2-87-1, 2-[1′-Amino-N-(propyl-3″-N,N-diethylamino)ethyl]-9,10-anthraquinone] | – | – | 100,000 nM | 100,000 nM | 100,000 nM | LOEC (lowest-observed-effect concentration), Oscillatoria perornata ([5]; rapid screening): 1,000 nM
9 | O=C1c2ccccc2C(=O)c2c(O)ccc(O)c21 [1,4-dihydroxyanthraquinone, reference compound] | > 100 µM | > 100 µM | – | – | – | –
10 | O=C1c2ccccc2C(=O)c2cc(CO)ccc21 [2-hydroxymethyl-anthraquinone, reference compound] | – | – | – | – | – | MIC [4]: 100 µM (≈ 23.8 µg/mL); MIC ([5]; Planktothrix perornata): 10 µM (≈ 2.38 µg/mL)
11 | COCCOCCOCCOc1cccc2c1C(=O)c1ccccc1C2=O [DNA3-11-1, 1-[2-[2-(2-Methoxyethoxy)ethoxy]ethoxy]-9,10-anthraquinone] | > 100 µM | 10 µM (≈ 3.7 µg/mL) | – | – | – | minimal effective concentration ([4]; rapid screening): > 100 µM; minimal effective concentration [5, 6]: 10 µM
12 | CCCCN(CCCC)Cc1ccc2c(c1)C(=O)c1ccccc1C2=O.O=P(O)(O)O [DNA2-57-1, 2-[Methylamino-N,N-(dibutyl)]-9,10-anthraquinone monophosphate] | – | – | 1e+06 nM | 100,000 nM | 1,000 nM | LOEC (lowest-observed-effect concentration), Oscillatoria perornata ([5]; rapid screening): 1,000 nM
